Laboratory results from the supplement of paper PMC13380429.
± gives the standard deviation of the averaged measurements.

What was measured:
Details in all cases: 72 h
Calu-3 [1] = experiment: relative viability EC50 (midpoint between 100% and the lowest measured viability); higher = less toxic
Vero E6 [2] = experiment: as above
U2OS [3] = experiment: as above
Caco-2 [4] = experiment: as above
HepG2 [5] = experiment: as above
Calu-3 [6] = experiment: drug sensitivity score (DSS) for viability; higher = more toxic; extreme values may be limits of the assay
Vero E6 [7] = experiment: as above
U2OS [8] = experiment: as above
Caco-2 [9] = experiment: as above
HepG2 [10] = experiment: as above
Calu-3 [11] = experiment: cell viability relative to DMSO; higher = less toxic
Vero E6 [12] = experiment: as above
U2OS [13] = experiment: as above
Caco-2 [14] = experiment: as above
HepG2 [15] = experiment: as above

SMILES | relative viability EC50 (Calu-3 [1]) [µM] | relative viability EC50 (Vero E6 [2]) [µM] | relative viability EC50 (U2OS [3]) [µM] | relative viability EC50 (Caco-2 [4]) [µM] | relative viability EC50 (HepG2 [5]) [µM] | drug sensitivity score (Calu-3 [6]) | drug sensitivity score (Vero E6 [7]) | drug sensitivity score (U2OS [8]) | drug sensitivity score (Caco-2 [9]) | drug sensitivity score (HepG2 [10]) | cell viability (Calu-3 [11]; 1 nM) [%] | cell viability (Calu-3 [11]; 10 nM) [%] | cell viability (Calu-3 [11]; 100 nM) [%] | cell viability (Calu-3 [11]; 1000 nM) [%] | cell viability (Calu-3 [11]; 10000 nM) [%] | cell viability (Vero E6 [12]; 1 nM) [%] | cell viability (Vero E6 [12]; 10 nM) [%] | cell viability (Vero E6 [12]; 100 nM) [%] | cell viability (Vero E6 [12]; 1000 nM) [%] | cell viability (Vero E6 [12]; 10000 nM) [%] | cell viability (U2OS [13]; 1 nM) [%] | cell viability (U2OS [13]; 10 nM) [%] | cell viability (U2OS [13]; 100 nM) [%] | cell viability (U2OS [13]; 1000 nM) [%] | cell viability (U2OS [13]; 10000 nM) [%] | cell viability (Caco-2 [14]; 1 nM) [%] | cell viability (Caco-2 [14]; 10 nM) [%] | cell viability (Caco-2 [14]; 100 nM) [%] | cell viability (Caco-2 [14]; 1000 nM) [%] | cell viability (Caco-2 [14]; 10000 nM) [%] | cell viability (HepG2 [15]; 1 nM) [%] | cell viability (HepG2 [15]; 10 nM) [%] | cell viability (HepG2 [15]; 100 nM) [%] | cell viability (HepG2 [15]; 1000 nM) [%] | cell viability (HepG2 [15]; 10000 nM) [%]
CN[C@H]1C(=O)N[C@@H]2Cc3ccc(cc3)Oc3cc4cc(c3O[C@@H]3O[C@H](C(=O)O)[C@@H](O)[C@H](O)[C@H]3NC(=O)CCCCCCCCC(C)C)Oc3ccc(cc3Cl)[C@@H](O)[C@@H]3NC(=O)[C@H](NC(=O)[C@@H]4NC(=O)[C@@H](NC2=O)c2cc(cc(O)c2Cl)Oc2cc1ccc2O)c1ccc(O)c(c1)-c1c(O[C@H]2O[C@H](CO)[C@@H](O)[C@H](O)[C@@H]2O)cc(O)cc1[C@@H](C(=O)NCCCN(C)C)NC3=O [dalbavancin] | > 10 | > 10 | > 10 | > 10 | > 10 | 0 | 0 | 0 | 0 | 0 | 95.2 | 102 | 95.2 | 103 | 95 | 111 | 114 | 109 | 87.3 | 102 | 99.1 | 100 | 96.9 | 98 | 95.8 | 89.3 | 106 | 92.6 | 111 | 90.1 | 88.7 | 94.3 | 118 | 91.4 | 116
CCCC(=O)O[C@]1(C(=O)COC(C)=O)CC[C@H]2[C@@H]3C[C@H](F)C4=CC(=O)C=C[C@]4(C)[C@@]3(F)[C@@H](O)C[C@@]21C [difluprednate] | > 10 | > 10 | > 10 | > 10 | > 10 | 0 | 0 | 0 | 0 | 0 | 106 | 90.7 | 87.7 | 90.5 | 102 | 96.9 | 97 | 95.3 | 98.9 | 94.2 | 99.5 | 93.3 | 93.4 | 94.1 | 92.1 | 96.6 | 93.2 | 98.3 | 101 | 91.8 | 97.5 | 93.7 | 107 | 105 | 88.3
Cc1ccc2c(c1)[C@]13CCCC[C@@H]1[C@H](C2)N(C)CC3 [dimemorfan] | > 10 | > 10 | > 10 | > 10 | > 10 | 0 | 0 | 0 | 0 | 0 | 89.1 | 95.5 | 89.1 | 89.2 | 98.7 | 101 | 103 | 104 | 98.7 | 106 | 96.8 | 102 | 95.7 | 101 | 93.7 | 93.5 | 96.5 | 94.6 | 103 | 91.8 | 105 | 103 | 99 | 95.3 | 101
Fc1ccc2nc(CCC#Cc3ccccn3)cn2c1 [dipraglurant] | > 10 | > 10 | > 10 | > 10 | > 10 | 0.1 | 0 | 0 | 0 | 0 | 92.1 | 100 | 95.2 | 99.4 | 88 | 94.8 | 100 | 91.6 | 93.3 | 110 | 100 | 97.3 | 95.3 | 93.9 | 99.9 | 102 | 94.2 | 106 | 99.5 | 99.3 | 99.9 | 99.8 | 103 | 104 | 106
OCC(O)CN1CCN(c2ccccc2)CC1 (stereo not given) [dropropizine] | > 10 | > 10 | > 10 | > 10 | > 10 | 0 | 0 | 0 | 0 | 0.1 ± 0.14 | 106 ± 1.6 | 97.85 ± 0.64 | 104 ± 4.5 | 99.6 ± 1.3 | 97.85 ± 0.21 | 96.6 ± 7.5 | 95.8 ± 1.5 | 94.2 ± 8.5 | 96.7 ± 6.7 | 103 ± 8.4 | 99.9 ± 5 | 97.3 ± 4.9 | 100.5 ± 0.49 | 97.7 ± 0.14 | 102.8 ± 0.35 | 89.7 ± 5 | 85.2 ± 12 | 97.8 ± 2.9 | 91.9 ± 0.57 | 96.3 ± 9.9 | 94.8 ± 4.6 | 101 ± 4.9 | 102 ± 1.6 | 99.5 ± 3.2 | 88.9 ± 5.2
CCN(CC)CCOc1ccccc1C(=O)CCc1ccccc1 [etafenone] | > 10 | > 10 | > 10 | > 10 | > 10 | 0 | 0 | 0 | 0 | 0 | 96.9 | 99 | 106 | 108 | 101 | 93.2 | 93 | 101 | 91.8 | 102 | 94.8 | 101 | 97.9 | 103 | 103 | 93.3 | 104 | 94 | 103 | 100 | 98.6 | 90.6 | 106 | 94.7 | 94.3
CCOC(=O)c1ccccc1OC(N)=O [ethyl-2-(carbamoyloxy)benzoate] | > 10 | > 10 | > 10 | > 10 | > 10 | 0 | 0 | 0 | 0 | 0 | 93.2 | 92.5 | 98 | 122 | 103 | 109 | 91.4 | 102 | 106 | 103 | 98.6 | 103 | 100 | 102 | 98.6 | 104 | 91.5 | 97.1 | 106 | 96.9 | 106 | 87.2 | 94.2 | 83.5 | 103
CC(C)=CCC/C(C)=C/CC/C(C)=C/CSc1ccccc1C(N)=O [farnesyl-thiosalicylic-acid-amide] | > 10 | > 10 | > 10 | > 10 | > 10 | 0 | 0 | 0 | 0 | 0.1 | 106 | 92.4 | 108 | 105 | 111 | 89.8 | 101 | 92.8 | 87.1 | 99.7 | 98.9 | 100 | 105 | 98.3 | 102 | 104 | 116 | 95 | 116 | 104 | 100 | 105 | 96.6 | 108 | 85.7
COC(=O)/C=C/c1cccc(N(Cc2ccc(-c3ccc(N(C)C)cc3)cc2)C(=O)C2CCCCC2)c1 [fexaramine] | > 10 | > 10 | > 10 | > 10 | > 10 | 0 | 0.1 | 0.1 | 1.3 | 0.3 | 110 | 95.4 | 104 | 96.5 | 92.3 | 107 | 103 | 99.4 | 98.3 | 88.8 | 103 | 97.5 | 99.9 | 97 | 88.5 | 104 | 99.9 | 104 | 92 | 81.1 | 105 | 104 | 97.4 | 101 | 83.5
Fc1ccc(C(c2ccc(F)cc2)N2CCN(C/C=C/c3ccccc3)CC2)cc1 [flunarizine] | > 10 | > 10 | > 10 | > 10 | > 10 | 0 | 0 | 0.1 | 0.3 | 0.8 | 95.8 | 98.9 | 96.5 | 95.8 | 87.4 | 104 | 103 | 107 | 102 | 92.3 | 96.1 | 101 | 97.7 | 98.4 | 88.8 | 99.8 | 102 | 104 | 103 | 81.6 | 106 | 102 | 106 | 96.3 | 82.8
CC(=O)[C@@]1(O)CC[C@H]2[C@@H]3C[C@H](C)C4=CC(=O)C=C[C@]4(C)[C@@]3(F)[C@@H](O)C[C@@]21C [fluorometholone] | > 10 | > 10 | > 10 | > 10 | > 10 | 0 | 0 | 0 | 0 | 0 | 93.2 | 98.3 | 94.1 | 92.5 | 87.9 | 105 | 101 | 102 | 97.5 | 101 | 96.4 | 97.9 | 91.1 | 97 | 92.3 | 94.1 | 96.2 | 96.4 | 99.7 | 124 | 96.3 | 96.7 | 101 | 90.8 | 96.9
COc1ccc(CC(C)NCC(O)c2ccc(O)c(NC=O)c2)cc1 (stereo not given) [formoterol] | > 10 | > 10 | > 10 | > 10 | > 10 | 0.5 | 0 | 0 | 0 | 0 | 99.3 | 101 | 101 | 88.1 | 92.4 | 93.9 | 91.5 | 97.2 | 95.3 | 104 | 95.5 | 102 | 97.2 | 105 | 97.8 | 96 | 90.2 | 93.4 | 100 | 98.5 | 101 | 89.4 | 98.5 | 93.7 | 105
